Molecular target: human recombinant Btk (Homo sapiens, UniProt Q06187)
Assay: Btk Enzymatic Activity Assay (Caliper-based kinase assay)
Type: biochemical
Details: human recombinant Btk 2 nM, ATP 40 μM, peptide substrate 1 μM, room temperature, 3 h; read-out: IC50 (inhibition of Btk kinase activity)
Description: A Caliper-based kinase assay (Caliper Life Sciences, Hopkinton, Mass.) was used to measure inhibition of Btk kinase activity of a compound of Formula (I). Serial dilutions of test compounds were incubated with human recombinant Btk (2 nM), ATP (40 μM) and a phosphoacceptor peptide substrate FAM-GEEPLYWSFPAKKK-NH2 (1 μM) at room temperature for 3 h. The reaction was then terminated with EDTA, final concentration 20 mM and the phosphorylated reaction product was quantified on a Caliper Desktop Profiler (Caliper LabChip 3000). Percent inhibition was calculated for each compound dilution and the concentration that produced 50% inhibition was calculated. This value is presented as the IC50.

human recombinant Btk, sequence (Q06187 whole entry): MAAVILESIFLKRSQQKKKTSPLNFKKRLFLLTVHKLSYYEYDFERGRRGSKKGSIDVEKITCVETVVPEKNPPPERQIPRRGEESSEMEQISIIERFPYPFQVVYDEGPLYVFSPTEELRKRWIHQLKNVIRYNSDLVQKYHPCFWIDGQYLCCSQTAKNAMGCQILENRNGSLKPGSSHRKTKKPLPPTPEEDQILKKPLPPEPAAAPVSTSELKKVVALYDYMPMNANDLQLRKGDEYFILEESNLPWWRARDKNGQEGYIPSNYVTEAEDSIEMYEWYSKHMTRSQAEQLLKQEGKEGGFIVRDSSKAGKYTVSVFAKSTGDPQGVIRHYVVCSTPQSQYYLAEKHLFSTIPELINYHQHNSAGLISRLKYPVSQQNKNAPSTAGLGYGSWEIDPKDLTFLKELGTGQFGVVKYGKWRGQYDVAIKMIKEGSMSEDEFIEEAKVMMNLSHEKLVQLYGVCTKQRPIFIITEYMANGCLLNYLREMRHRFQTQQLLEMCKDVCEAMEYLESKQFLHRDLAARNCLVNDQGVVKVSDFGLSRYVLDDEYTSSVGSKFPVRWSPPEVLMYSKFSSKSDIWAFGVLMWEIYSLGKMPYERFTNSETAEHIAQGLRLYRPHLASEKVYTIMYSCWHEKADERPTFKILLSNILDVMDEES

Compound	IC50
Nc1ncnc2c1c(-c1ccc(Oc3ccccc3)cc1)nn2C[C@H]1CCCN1C(=O)C(F)=CC1CC1 [Example 1, (R)-1-(2-((4-amino-3-(4-phenoxyphenyl)-1H-pyrazolo[3,4-d]pyrimidin-1-yl)methyl)pyrrolidin-1-yl)-3-cyclopropyl-2-fluoroprop-2-en-1-one]	203 nM
Nc1ncnc2c1c(-c1ccc(Oc3ccccc3)cc1)nn2C[C@H]1CCCN1C(=O)C(=CC1CC1)C(F)(F)F [Example 2, (R)-1-(2-((4-amino-3-(4-phenoxyphenyl)-1H-pyrazolo[3,4-d]pyrimidin-1-yl)methyl)pyrrolidin-1-yl)-3-cyclopropyl-2-(trifluoromethyl)prop-2-en-1-one]	41 nM
Nc1ncnc2c1c(-c1ccc(Oc3ccccc3)cc1)nn2CCCN1C(=O)SC(=CC2CC2)C1=O [Example 3, 3-(3-(4-amino-3-(4-phenoxyphenyl)-1H-pyrazolo[3,4-d]pyrimidin-1-yl)propyl)-5-(cyclopropylmethylene)thiazolidine-2,4-dione]	23 nM
Nc1ncnc2c1c(-c1ccc(Oc3ccccc3)cc1)nn2CCN1C(=O)SC(=Cc2ccccc2)C1=O [Example 4, 3-(2-(4-amino-3-(4-phenoxyphenyl)-1H-pyrazolo[3,4-d]pyrimidin-1-yl)ethyl)-5-benzylidenethiazolidine-2,4-dione]	860 nM
Nc1ncnc2c1c(-c1ccc(Oc3ccccc3)cc1)nn2CCN1C(=O)SC(=CC2CC2)C1=O [Example 5, 3-(2-(4-amino-3-(4-phenoxyphenyl)-1H-pyrazolo[3,4-d]pyrimidin-1-yl)ethyl)-5-(cyclopropylmethylene)thiazolidine-2,4-dione]	49 nM

— US9376438B2, “Pyrazolopyrimidine derivatives as tyrosine kinase inhibitors” (Principia Biopharma, Inc., priority 2011, dated 2016)
